Measured values as given in ChEMBL document CHEMBL1201862, “PubChem BioAssay data set” (2004).
The source made the active and inactive calls.

What was measured:
[1] = target: T1, Carboxy-terminal domain RNA polymerase II polypeptide A small phosphatase 1 (Homo sapiens, UniProt Q9GZU7); assay: inhibitors of CTDSP1, concentration-response testing, biochemical assay, absorbance-based, actives from ultra-high-throughput screening (AID 540297); assay type: functional
T1 sequence (Q9GZU7 whole entry): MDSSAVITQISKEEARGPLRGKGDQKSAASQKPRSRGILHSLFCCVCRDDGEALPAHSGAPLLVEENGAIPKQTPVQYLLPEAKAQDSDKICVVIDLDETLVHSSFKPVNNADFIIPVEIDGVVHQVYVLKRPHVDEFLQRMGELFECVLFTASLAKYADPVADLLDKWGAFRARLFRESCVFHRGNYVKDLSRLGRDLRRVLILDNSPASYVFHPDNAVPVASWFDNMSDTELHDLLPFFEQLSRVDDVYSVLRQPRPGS

[2] = target: Tyrosine-protein phosphatase non-receptor type 11 (Homo sapiens, UniProt Q06124); assay: SHP2 phosphatase inhibition, dose response, selectivity assay for STEP inhibitor project, biochemical (AID 602367); assay type: functional; details: read-out: IC50_Mean
Sequence of Tyrosine-protein phosphatase non-receptor type 11 (Q06124 whole entry): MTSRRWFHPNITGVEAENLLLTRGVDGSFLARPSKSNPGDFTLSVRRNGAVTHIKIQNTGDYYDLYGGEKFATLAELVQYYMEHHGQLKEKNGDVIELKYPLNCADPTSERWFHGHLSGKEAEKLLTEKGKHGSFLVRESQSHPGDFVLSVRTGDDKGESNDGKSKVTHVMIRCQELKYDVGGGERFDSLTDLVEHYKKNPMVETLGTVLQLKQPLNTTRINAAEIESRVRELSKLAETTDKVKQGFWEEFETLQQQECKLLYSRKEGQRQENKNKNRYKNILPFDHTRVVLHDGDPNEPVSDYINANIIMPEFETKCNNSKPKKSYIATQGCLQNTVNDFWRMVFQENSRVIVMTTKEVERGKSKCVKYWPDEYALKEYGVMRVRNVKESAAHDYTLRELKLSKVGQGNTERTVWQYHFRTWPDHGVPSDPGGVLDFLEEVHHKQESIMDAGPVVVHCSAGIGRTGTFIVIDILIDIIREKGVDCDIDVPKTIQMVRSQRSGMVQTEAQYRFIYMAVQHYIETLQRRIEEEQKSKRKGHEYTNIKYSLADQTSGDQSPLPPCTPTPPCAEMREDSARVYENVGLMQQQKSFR

[3] = target: Tyrosine-protein phosphatase non-receptor type 5 (Homo sapiens, UniProt P54829); assay: STEP phosphatase inhibitors, confirmation, biochemical, fluorescence intensity, uHTS hits (AID 602372); assay type: functional; details: read-out: IC50_Mean
Sequence of Tyrosine-protein phosphatase non-receptor type 5 (P54829 whole entry): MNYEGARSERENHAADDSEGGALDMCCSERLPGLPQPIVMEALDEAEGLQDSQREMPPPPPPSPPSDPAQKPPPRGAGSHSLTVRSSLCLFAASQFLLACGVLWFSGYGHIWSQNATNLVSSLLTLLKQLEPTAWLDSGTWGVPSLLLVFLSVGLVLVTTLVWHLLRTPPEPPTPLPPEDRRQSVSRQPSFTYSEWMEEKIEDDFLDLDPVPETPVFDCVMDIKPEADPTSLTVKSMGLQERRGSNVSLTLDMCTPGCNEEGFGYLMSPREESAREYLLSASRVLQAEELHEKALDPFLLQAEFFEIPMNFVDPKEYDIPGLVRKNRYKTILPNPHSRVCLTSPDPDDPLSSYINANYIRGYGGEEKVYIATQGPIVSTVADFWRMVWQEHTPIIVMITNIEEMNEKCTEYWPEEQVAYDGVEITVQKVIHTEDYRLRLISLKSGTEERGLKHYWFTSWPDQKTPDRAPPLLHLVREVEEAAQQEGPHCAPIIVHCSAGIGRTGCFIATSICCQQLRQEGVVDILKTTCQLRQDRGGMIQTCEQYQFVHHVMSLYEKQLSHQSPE

Caspase-6 = target: T2, Caspase-6 (Homo sapiens, UniProt P55212); assay: human caspase-6 inhibitors, dose response, biochemical, VEID-R110 fluorescence, cherry-pick (AID 720632)
T2 sequence (P55212 whole entry): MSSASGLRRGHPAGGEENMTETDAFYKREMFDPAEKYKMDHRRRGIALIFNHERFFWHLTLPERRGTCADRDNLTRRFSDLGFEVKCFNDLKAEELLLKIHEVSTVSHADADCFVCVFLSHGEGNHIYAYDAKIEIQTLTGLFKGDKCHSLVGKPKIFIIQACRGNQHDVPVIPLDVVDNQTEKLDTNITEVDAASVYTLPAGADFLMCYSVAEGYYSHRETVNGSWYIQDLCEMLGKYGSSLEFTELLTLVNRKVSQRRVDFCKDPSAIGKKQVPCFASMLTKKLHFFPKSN

[4] = target: Dual specificity protein phosphatase 3 (Homo sapiens, UniProt P51452); assay: VHR phosphatase inhibition, dose response, selectivity assay for STEP inhibitor project, biochemical (AID 602374); assay type: functional; details: read-out: IC50_Mean
Sequence of Dual specificity protein phosphatase 3 (P51452 whole entry): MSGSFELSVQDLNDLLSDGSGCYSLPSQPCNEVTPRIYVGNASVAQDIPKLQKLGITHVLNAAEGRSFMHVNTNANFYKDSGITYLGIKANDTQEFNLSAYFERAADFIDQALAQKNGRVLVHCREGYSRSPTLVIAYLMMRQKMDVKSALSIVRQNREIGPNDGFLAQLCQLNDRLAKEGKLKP

Insulin-degrading enzyme [5] = target: T3, Insulin-degrading enzyme (Homo sapiens, UniProt P14735); assay: activators of endogenous IDE in HEK cells, dose response, cell-based, fluorescence polarization (AID 588439); assay type: functional
T3 sequence (P14735 whole entry): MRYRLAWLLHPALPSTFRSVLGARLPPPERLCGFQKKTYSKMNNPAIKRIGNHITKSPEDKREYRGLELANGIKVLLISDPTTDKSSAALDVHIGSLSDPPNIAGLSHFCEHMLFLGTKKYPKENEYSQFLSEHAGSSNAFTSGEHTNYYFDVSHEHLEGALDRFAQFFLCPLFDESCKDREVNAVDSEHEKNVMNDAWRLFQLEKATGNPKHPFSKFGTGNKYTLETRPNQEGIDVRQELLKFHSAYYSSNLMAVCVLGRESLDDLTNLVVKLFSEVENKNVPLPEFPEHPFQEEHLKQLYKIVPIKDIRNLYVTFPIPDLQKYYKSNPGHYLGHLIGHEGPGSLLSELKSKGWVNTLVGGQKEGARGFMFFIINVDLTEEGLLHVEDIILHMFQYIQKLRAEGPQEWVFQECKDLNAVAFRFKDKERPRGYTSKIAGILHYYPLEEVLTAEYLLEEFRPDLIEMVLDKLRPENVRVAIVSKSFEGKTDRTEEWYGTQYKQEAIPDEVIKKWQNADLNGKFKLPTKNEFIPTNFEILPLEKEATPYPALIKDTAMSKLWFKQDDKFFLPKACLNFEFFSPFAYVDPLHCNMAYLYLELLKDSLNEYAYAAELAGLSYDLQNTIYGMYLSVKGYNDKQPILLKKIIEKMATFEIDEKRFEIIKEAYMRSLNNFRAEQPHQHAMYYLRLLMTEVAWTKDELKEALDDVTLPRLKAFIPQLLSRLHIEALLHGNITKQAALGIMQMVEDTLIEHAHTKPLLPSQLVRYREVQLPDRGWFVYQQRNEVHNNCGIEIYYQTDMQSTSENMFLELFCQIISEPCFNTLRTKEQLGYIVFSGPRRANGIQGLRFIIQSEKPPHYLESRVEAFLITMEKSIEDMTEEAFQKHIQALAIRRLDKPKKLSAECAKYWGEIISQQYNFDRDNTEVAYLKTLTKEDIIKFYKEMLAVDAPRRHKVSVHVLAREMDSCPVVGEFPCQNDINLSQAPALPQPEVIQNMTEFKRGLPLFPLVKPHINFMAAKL

HEK293 [6] = assay: HEK cell cytotoxicity by LDH release, dose response, cytotoxicity control for IDE activator project, fluorescence, HEK cells (AID 588440); assay type: functional, cell-based; details: Homo sapiens;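 note: cytotoxicity by LDH release measuring loss of membrane integrity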
Insulin-degrading enzyme [7] = target: T3, Insulin-degrading enzyme; assay: activators of recombinant IDE enzyme, dose response, counter-screen for IDE activator project, biochemical, fluorescence polarization (AID 588681)
HEK293 [8] = assay: optical interference in Abeta FP readout, dose response, artefact control for IDE activator project, biochemical, fluorescence polarization (AID 588442); assay type: functional, cell-based; details: Homo sapiens
HEK293 [9] = assay: cells; assay type: functional, cell-based; details: Homo sapiens
[10] = target: T4, Nuclear receptor subfamily 0 group B member 1 (Homo sapiens, UniProt P51843); assay: Luminescence-based cell-based high throughput dose response assay for inhibitors of the orphan nuclear receptor subfamily 0, group B, member 1 (DAX1; NR0B1). [Related pubchem assays (depositor defined):AID504766, AID504790]; assay type: functional
T4 sequence (P51843 whole entry): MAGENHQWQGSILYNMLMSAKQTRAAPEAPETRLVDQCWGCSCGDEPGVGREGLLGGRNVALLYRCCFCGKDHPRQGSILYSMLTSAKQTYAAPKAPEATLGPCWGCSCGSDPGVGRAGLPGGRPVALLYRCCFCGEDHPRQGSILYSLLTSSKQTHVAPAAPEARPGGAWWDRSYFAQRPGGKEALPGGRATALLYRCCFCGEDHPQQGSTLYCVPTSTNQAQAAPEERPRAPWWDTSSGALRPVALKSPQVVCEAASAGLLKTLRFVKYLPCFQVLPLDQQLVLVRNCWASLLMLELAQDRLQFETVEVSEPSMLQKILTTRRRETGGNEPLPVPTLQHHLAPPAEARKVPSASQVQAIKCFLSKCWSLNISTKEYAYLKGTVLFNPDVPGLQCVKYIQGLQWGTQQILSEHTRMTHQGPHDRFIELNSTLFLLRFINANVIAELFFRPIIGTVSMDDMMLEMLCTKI

[11] = HEp-2 cell cytotoxicity, dose response, cytotoxicity control for RSV inhibitor project, HTS (AID 2410); assay type: functional; details: human respiratory syncytial virus
[12] = target: Adenosylmethionine-8-amino-7-oxononanoate aminotransferase (Mycobacterium tuberculosis, UniProt P9WQ81); assay: Mycobacterium tuberculosis BioA enzyme inhibitor Measured in Biochemical System Using Plate Reader - 2163-02_Inhibitor_Dose_CherryPick_Activity.; assay type: functional, Mycobacterium tuberculosis UT205
Sequence of Adenosylmethionine-8-amino-7-oxononanoate aminotransferase (P9WQ81 whole entry): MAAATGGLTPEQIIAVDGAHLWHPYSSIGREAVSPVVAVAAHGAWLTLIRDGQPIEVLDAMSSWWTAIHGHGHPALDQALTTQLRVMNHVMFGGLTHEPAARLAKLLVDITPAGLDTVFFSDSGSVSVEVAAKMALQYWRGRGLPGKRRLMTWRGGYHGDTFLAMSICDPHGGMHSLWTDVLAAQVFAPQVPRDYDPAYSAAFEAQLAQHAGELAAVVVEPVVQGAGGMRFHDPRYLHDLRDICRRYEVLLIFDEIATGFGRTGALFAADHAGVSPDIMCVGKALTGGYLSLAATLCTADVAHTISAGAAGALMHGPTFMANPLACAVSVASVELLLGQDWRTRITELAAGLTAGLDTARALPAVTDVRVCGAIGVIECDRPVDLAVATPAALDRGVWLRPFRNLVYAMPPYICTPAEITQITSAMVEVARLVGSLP

O=S(=O)(Nc1ccccc1)c1cccc2nsnc12
IC50 [1]: 6.86 µM (active)
IC50 [2]: 3.9 µM (active)
IC50 [3]: 35.1 µM (inactive)
AC50 (Caspase-6): 8.86 µM (active)
IC50 [4]: 2.91 µM (active)

Cn1c(CN2CCOCC2)nnc1SCC(=O)Nc1ccc([N+](=O)[O-])cc1O
EC50 (Insulin-degrading enzyme [5]): > 54.7 µM (inactive)
IC50 (HEK293 [6]): > 89.2 µM (inactive)
EC50 (Insulin-degrading enzyme [7]): > 54.7 µM (inactive)
EC50 (HEK293 [8]): > 54.7 µM (inactive)

N#C/C(=C/c1ccc(-c2cc([N+](=O)[O-])ccc2Cl)o1)C(N)=O
IC50 (HEK293 [9]): > 67.6 µM (inactive)
IC50 [10]: > 67.6 µM (inactive)
CC50 [11]: 16.6 µM (active)

Cc1ccc(S(=O)(=O)OCCC2=CC(=O)CCN2Cc2ccccc2)cc1
EC50 (Insulin-degrading enzyme [5]): > 54.7 µM (inactive)
IC50 (HEK293 [6]): > 89.1 µM (inactive)
EC50 (Insulin-degrading enzyme [7]): > 54.7 µM (inactive)
EC50 (HEK293 [8]): > 55.9 µM (inactive)

CCCCN(C)C(=O)Cn1nc(Cc2ccncc2)c2ccccc2c1=O
IC50 (HEK293 [9]): > 67.5 µM (inactive)
IC50 [10]: > 67.5 µM (inactive)

O=C(C1CC1)N1CC[C@@H]2[C@H]1c1cc(Br)ccc1N[C@@H]2CO
AC50 [12]: 7.01 µM (active)

CN1c2ccc(-c3cccc(F)c3)cc2[C@H]2[C@H](CCN2C(=O)c2ccncc2)[C@@H]1CO
AC50 [12]: 7.24 µM (active)

Cc1[nH]c2ccccc2c1/C=N/NC(=O)c1cccc(F)c1
IC50 (HEK293 [9]): > 67.5 µM (inactive)
IC50 [10]: > 67.5 µM (inactive)
